From ChEMBL document CHEMBL1201862, “PubChem BioAssay data set” (2004)
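1) Cells in 96-well plates. 2) Compound, 48 h, 5 concentrations. 3) Linear interpolation between surrounding doses. 4) Unreached endpoint = highest concentration. GI50 marks 50% less growth.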 Active and inactive are the calls of the source. Cut-off read from the data, not from the text of the source: active = GI50 up to about 1.1 µM and inactive = higher.

Tests used:
Experiment in all cases: DTP human tumour cell line panel, 48 h
[1] = test system: RXF 393
[2] = test system: SNB-75
[3] = test system: HCT-15
[4] = test system: HCT-116
[5] = test system: K562
[6] = test system: A498
[7] = test system: HT-29
[8] = test system: DLD-1
[9] = test system: COLO 205
[10] = test system: HOP-62
[11] = test system: M19-MEL
[12] = test system: SF-268
[13] = test system: NCI-H226
[14] = test system: SK-MEL-5
[15] = test system: UO-31
[16] = test system: NCI-H522
[17] = test system: CAKI-1
[18] = test system: EKVX
[19] = test system: MDA-MB-435
[20] = test system: T47D

Structure (SMILES)	GI50 [1]	GI50 [2]	GI50 [3]	GI50 [4]	GI50 [5]	GI50 [6]	GI50 [7]	GI50 [8]	GI50 [9]	GI50 [10]	GI50 [11]	GI50 [12]	GI50 [13]	GI50 [14]	GI50 [15]	GI50 [16]	GI50 [17]	GI50 [18]	GI50 [19]	GI50 [20]
CC1=CC2=C(C)C3(CC3)[C@@](C)(O)C(=O)C2=C1	0.149 µM (active)	0.19 µM (active)	0.193 µM	0.171 µM (active)	> 1 µM (active)	0.241 µM (active)	0.227 µM (active)	0.276 µM (active)	0.221 µM (active)	0.146 µM (active)	0.254 µM (active)	0.133 µM (active)	0.231 µM (active)	0.122 µM (active)	0.19 µM (active)	0.145 µM (active)	0.269 µM (active)	0.535 µM (active)	–	–
CC(=O)OCC1OC(n2cc(F)c(=O)[nH]c2=O)C(OC(C)=O)C1OC(C)=O (stereo not drawn)	45.9 µM (inactive)	23.6 µM (inactive)	13.7 µM	4.25 µM (inactive)	9.27 µM (inactive)	61.2 µM (inactive)	27.9 µM (inactive)	15.4 µM (inactive)	12.2 µM (inactive)	44 µM (inactive)	4.07 µM (inactive)	12.5 µM (inactive)	59.8 µM (inactive)	56 µM (inactive)	11.8 µM (inactive)	16.6 µM (inactive)	25.9 µM (inactive)	> 75.2 µM (inactive)	17 µM (inactive)	19.2 µM (inactive)
Cn1c2c(c3ccccc31)CCN(CCCCN1CCN(c3ccccc3)CC1)C2=O	10.8 µM (inactive)	44.8 µM (inactive)	17.2 µM	12.9 µM (inactive)	4.15 µM (inactive)	45 µM (inactive)	4.16 µM (inactive)	19.3 µM (inactive)	8.51 µM (inactive)	85.7 µM (inactive)	43.6 µM (inactive)	56 µM (inactive)	> 41.8 µM (inactive)	5.69 µM (inactive)	17.3 µM (inactive)	42 µM (inactive)	56.4 µM (inactive)	> 38.5 µM (inactive)	17.5 µM (inactive)	3.86 µM (inactive)
CN(C)CCNC(=O)c1cccc2ccc(-c3ccc(Br)cc3)nc12	3.96 µM (inactive)	3.27 µM (inactive)	2.78 µM	1.23 µM (inactive)	1.7 µM (inactive)	1.99 µM (inactive)	1.61 µM (inactive)	2.59 µM (inactive)	0.944 µM (active)	0.832 µM (active)	2.24 µM (inactive)	3.92 µM (inactive)	1.89 µM (inactive)	1.46 µM (inactive)	1.76 µM (inactive)	1.6 µM (inactive)	1.3 µM (inactive)	2.61 µM (inactive)	–	–
C/C(=N\NC(=S)N1CCN(C2CCCCCC2)CC1)c1ccccn1	0.212 µM (active)	1.71 µM (inactive)	0.01 µM	0.01 µM (active)	0.01 µM (active)	1.49 µM (inactive)	< 0.0343 µM (active)	0.01 µM (active)	0.01 µM (active)	–	0.34 µM (active)	0.337 µM (active)	0.0655 µM (active)	0.0249 µM (active)	0.1 µM (active)	< 0.0253 µM (active)	0.037 µM (active)	< 0.0121 µM (active)	0.161 µM (active)	0.01 µM (active)
O=C1OC2C(O)COC2(O)C1(O)Cc1c[nH]c2ccccc12.O=C1OC2C(O)COC2(OCc2c[nH]c3ccccc23)C1O (stereo not drawn)	> 100 µM (inactive)	> 100 µM (inactive)	> 100 µM	> 100 µM (inactive)	> 100 µM (inactive)	> 100 µM (inactive)	> 100 µM (inactive)	> 100 µM (inactive)	> 100 µM (inactive)	> 100 µM (inactive)	> 100 µM (inactive)	> 100 µM (inactive)	> 100 µM (inactive)	> 100 µM (inactive)	> 100 µM (inactive)	> 100 µM (inactive)	> 100 µM (inactive)	> 100 µM (inactive)	–	–
Cc1nc2c(s/c(=N\N)n2-c2ccccc2)c(=O)[nH]1	> 100 µM (inactive)	> 100 µM (inactive)	> 100 µM	> 100 µM (inactive)	> 100 µM (inactive)	> 100 µM (inactive)	> 100 µM (inactive)	> 100 µM (inactive)	> 100 µM (inactive)	> 100 µM (inactive)	> 100 µM (inactive)	> 100 µM (inactive)	> 100 µM (inactive)	> 100 µM (inactive)	> 100 µM (inactive)	> 100 µM (inactive)	> 100 µM (inactive)	> 100 µM (inactive)	–	–
O=C(NO)C(=O)Nc1ccc(Cl)cc1[N+](=O)[O-]	> 100 µM (inactive)	> 100 µM (inactive)	> 100 µM	> 100 µM (inactive)	> 100 µM (inactive)	> 100 µM (inactive)	> 100 µM (inactive)	> 100 µM (inactive)	> 100 µM (inactive)	> 100 µM (inactive)	> 100 µM (inactive)	> 100 µM (inactive)	> 100 µM (inactive)	> 100 µM (inactive)	> 100 µM (inactive)	> 100 µM (inactive)	66.5 µM (inactive)	33.9 µM (inactive)	–	–
O=C(O)COc1ccc(C(=O)/C(SS/C(C(=O)c2ccc(OCC(=O)O)c(Cl)c2Cl)=C2\C=C(c3ccc(Br)cc3)SS2)=C2/C=C(c3ccc(Br)cc3)SS2)c(Cl)c1Cl	–	7.5 µM (inactive)	4.92 µM	3.9 µM (inactive)	2.92 µM (inactive)	18.2 µM (inactive)	12.2 µM (inactive)	6.14 µM (inactive)	3.11 µM (inactive)	12.9 µM (inactive)	5.45 µM (inactive)	2.82 µM (inactive)	6.81 µM (inactive)	11.9 µM (inactive)	4.32 µM (inactive)	0.798 µM (active)	13.6 µM (inactive)	28 µM (inactive)	30.3 µM (inactive)	2.3 µM (inactive)
Cn1c(=O)n(C2(C)C[Se]C2)c2ccccc21	> 100 µM (inactive)	> 100 µM (inactive)	> 100 µM	> 100 µM (inactive)	> 100 µM (inactive)	> 100 µM (inactive)	> 100 µM (inactive)	> 100 µM (inactive)	> 100 µM (inactive)	> 100 µM (inactive)	> 100 µM (inactive)	> 100 µM (inactive)	> 100 µM (inactive)	> 100 µM (inactive)	> 100 µM (inactive)	> 100 µM (inactive)	> 100 µM (inactive)	> 100 µM (inactive)	–	–
O=C(NCCCCCCCCNC(=O)c1cccc2ccccc12)c1cccc2ccccc12	2.25 µM (inactive)	4.61 µM (inactive)	97.5 µM	24.4 µM (inactive)	> 100 µM (inactive)	17.1 µM (inactive)	> 100 µM (inactive)	> 100 µM (inactive)	55.1 µM (inactive)	4.07 µM (inactive)	> 86.1 µM (inactive)	9.93 µM (inactive)	8.43 µM (inactive)	> 92.9 µM (inactive)	6.3 µM (inactive)	9.4 µM (inactive)	18.2 µM (inactive)	19.5 µM (inactive)	> 100 µM (inactive)	–
CC(C)(C)Sc1nnc(SC(C)(C)C)c2c(SC(C)(C)C)nnc(O)c12	3.39 µM (inactive)	11.8 µM (inactive)	4.31 µM	3.78 µM (inactive)	4.74 µM (inactive)	14 µM (inactive)	6.03 µM (inactive)	10.9 µM (inactive)	12.4 µM (inactive)	13.9 µM (inactive)	4.37 µM (inactive)	7.53 µM (inactive)	15.2 µM (inactive)	5.35 µM (inactive)	5.73 µM (inactive)	3.61 µM (inactive)	3.58 µM (inactive)	12.1 µM (inactive)	–	–
Nc1nc(N)c2ncn(CC(CO)CC(c3ccccc3)P(=O)(O)O)c2n1 (stereo not drawn)	> 100 µM (inactive)	> 100 µM (inactive)	> 100 µM	> 100 µM (inactive)	> 100 µM (inactive)	> 100 µM (inactive)	> 100 µM (inactive)	> 100 µM (inactive)	> 100 µM (inactive)	> 100 µM (inactive)	> 100 µM (inactive)	> 100 µM (inactive)	> 100 µM (inactive)	> 100 µM (inactive)	> 100 µM (inactive)	> 100 µM (inactive)	> 100 µM (inactive)	–	–	–
CC(=O)OCC1OC(NC(=O)N(CCCl)N=O)C(OC(C)=O)C(OC(C)=O)C1OC(C)=O (stereo not drawn)	> 100 µM (inactive)	36.1 µM (inactive)	> 100 µM	> 100 µM (inactive)	> 100 µM (inactive)	> 100 µM (inactive)	> 100 µM (inactive)	> 100 µM (inactive)	> 100 µM (inactive)	> 100 µM (inactive)	> 100 µM (inactive)	> 80.9 µM (inactive)	3.86 µM (inactive)	> 31.6 µM (inactive)	> 100 µM (inactive)	> 100 µM (inactive)	> 86.7 µM (inactive)	54.8 µM (inactive)	–	–
